From publication PMC11413853, “Discovery of VU6007496: Challenges in the Development of an M1 Positive Allosteric Modulator Backup Candidate” (ACS Chemical Neuroscience, 2024)
Entries after “also recorded” stand apart in the source; their conditions may differ. Where two headings read alike, the source gives them in different places.

Key:
mice = test: Mouse phenotypic seizure liability assay (modified Racine score); type: in vivo; settings: 100 mg/kg i.p.; for seizure liability / behavioral convulsions (modified Racine score): male C57Bl/6 mice, 3 h
Protocol: Brain plasma concentration ratio (Kp) was calculated by dividing brain concentration by plasma concentration for each animal. Unbound brain to unbound plasma concentration ratio (Kp,uu) is calculated using the following formula: Kp,uu = (Brain ng/g x brain fu)/(plasma ng/ml x plasma fu). […]
Behavioral Manifestations of Seizure Activity
To evaluate induction of behavioral manifestation of seizure activity, C57Bl/6 mice received administration of vehicle or 100 mg/kg M1 PAM. Compounds were formulated in 30% Captisol (11) or 10% Tween 80 (2-4 and 12) (pH 7.0) at a concentration of 10 mg/mL and injected i.p. (n = 3). Animals were monitored continuously and scored for behavioral manifestations of seizure activity at 5, 10, 15, and 30 min, and 1 and 3 h. Behavioral manifestations of seizures were scored using a modified Racine scoring system.2 Briefly, a score of 0 represents no behavior alterations; score 1, immobility, mouth and facial movements, or facial clonus; score 2, head nodding, tail extension; score 3, forelimb clonus, repetitive movements; score 4, rearing and tonic clonic seizure; and score 5, continuous rearing and falling, severe generalized tonic clonic seizure.

[1] = Rat IV plasma:brain level cassette; type: in vivo; settings: male, 0.25 mg/kg; for concentration at 15 min: Sprague Dawley; for Kp uu at 0.25 h / Kp at 0.25 h: Sprague-Dawley, brain and plasma, 15 min; for Kp at 0.25 h: brain:plasma
Protocol: PAMs 11 and 12 were next evaluated in our rat IV plasma: brain level cassette paradigm (0.25 mg/kg compound, 1 mg/kg total dose, 10.1% EtOH:40.4% PEG400:49.5% DMSO) sampled at a set 15 min time point to assess CNS penetration. […] As mice are the most sensitive species to cholinergic mechanisms,[11],[13],[23],[24] we placed a high-throughput phenotypic seizure liability assay into the work-flow in which potent ago-PAMs, such as 2–5,[8]−[15] display robust Racine scale 4/5 behavioral convulsions that develop within minutes of dosing and last for the 3 h duration of the study. […] In parallel, we performed electrophysiology studies in mouse native tissue layer V medial prefrontal cortex (mPFC). […] Thus, both compounds cleared the major hurdles of CNS penetration and the liability of M1 overstimulation. […]
LC/MS/MS Bioanalysis of Samples from Plasma Protein Binding and Intrinsic Clearance […]
Samples were analyzed on a Thermo Electron TSQ Quantum Ultra triple quad mass spectrometer (San Jose, CA) via electrospray ionization (ESI) with two Themo Electron Accella pumps (San Jose, CA), and a Leap Technologies CTC PAL autosampler (Carrboro, NC). Analytes were separated by gradient elution on a dual column system with two Thermo Hypersil Gold (2.1 x 30 mm, 1.9 µm) columns (San Jose, CA) thermostated at 40 °C. HPLC mobile phase A was 0.1% formic acid in water and mobile phase B was 0.1% formic acid in acetonitrile. The gradient started […]
for 0.2 min; returned to 10% B in 0.1 min. The total run time was 1.3 min and the HPLC flow rate was 0.8 mL/min. While pump 1 ran the gradient method, pump 2 equilibrated the alternate column isocratically at 10% B. Compound optimization, data collection, and processing was performed using Thermo Electron's QuickQuan software (v2.3) and Xcalibur (v2.0.7 SP1).
In vivo DMPK experimental:
Determination of brain to plasma ratio:
All animal study procedures were approved by the Institutional Animal Care and Use Committee and were conducted in accordance with the National Institutes of Health regulations of animal care covered in Principles of Laboratory Animal Care (National Institutes of Health). All rats were fasted overnight prior to testing.
For determination of the brain over plasma ratio (Kp), compounds were formulated in 8% ethanol, 32% PEG400 and 60% DMSO (v/v/v) and administered as a single 0.2 mg/kg IV dose (1 mL/kg) to male, Sprague Dawley rats (n = 1) via injection into a surgically-implanted jugular vein catheter. At 15 min post dosing, blood sample was collected into chilled, K2EDTA anticoagulant-fortified tube and immediately placed on wet ice. The blood sample was then centrifuged (1700 rcf, 5 minutes, 4 °C) to obtain plasma sample. At the same post-administration time point, whole brain sample was obtained by rapid dissection, rinsed with PBS, and immediately frozen in individual tissue collection box (dry ice). All brain and plasma samples were stored at -80 °C until […]
Sample Analysis: Concentrations in plasma and brain homogenates were quantified by liquid chromatography tandem mass spectrometry (LC-MS/MS). Whole brains were homogenized in 3 mL of 70:30 IPA:water in a mini bead beater for 3 min, and centrifuged at 3,500 g for 5 min. 5 uL of the supernatant was diluted in 15 uL of blank plasma for quantification of the analytes. Plasma samples were centrifuged at 3,500 g for 5 min. A standard curve was generated by diluting the analytes DMSO stocks with blank plasma to obtain a final concentration of 10,000 ng/ml followed by a serial dilution down to 0.5 ng/ml. Quality controls were generated by a serial dilution of the 5,000 ng/ml standard curve solution in blank plasma to obtain 3 concentrations of 500, 50, and 5 ng/ml. 20 uL of brain diluted in plasma, plasma, blank plasma, standard curve and QC samples were loaded in a V-bottom 96-well plate. 120 uL of acetonitrile containing 0.05 uM carbamazepine (internal standard) was added to each well and the plate was centrifuged at 3,500 g for 5 min. 60 […]

[2] = brain, read-out: brain concentration
[3] = plasma, read-out: plasma concentration

Q: Which “seizure liability / behavioral convulsions (modified Racine score)” value (mice) does the source give for `Cn1ccc(-c2ccc(Cc3cc(C(=O)NC4CCOCC4)nc4ccsc34)cc2)n1` [compound 12] here?
A: Its value is “did not induce seizure liability; also recorded: did not cause any observed adverse effects”.

Q: What about the concentration at 15 min [1, 2] of the same compound?
A: Its concentration at 15 min is 120 ng/g.

Q: And the concentration at 15 min [1, 3]?
A: Its concentration at 15 min is 105 ng/mL.

Q: And the Kp uu at 0.25 h [1]?
A: The Kp uu at 0.25 h was 0.7.

Q: What about the Kp at 0.25 h [1] of the same compound?
A: Its Kp at 0.25 h is 1.1.

Q: Which results are given for `Cn1ccc(-c2ccc(Cc3cc(C(=O)NC4CCOCC4)nc4ccn(C)c34)cc2)n1` [compound 11]?
A: seizure liability / behavioral convulsions (modified Racine score) (mice): did not induce seizure liability; also recorded: did not cause any observed adverse effects; total brain exposure (mice; mouse): 1.04 µM; concentration at 15 min [1, 2]: 39 ng/g; concentration at 15 min [1, 3]: 92.2 ng/mL; Kp uu at 0.25 h [1]: 0.36; Kp at 0.25 h [1]: 0.42
